Measured values published in patent US8686048B2, “Immunomodulator and anti-inflammatory compounds” (Rhizen Pharmaceuticals SA, priority 2010, dated 2014).

What was measured:
h-DHODH = target: T1, h-DHODH (Homo sapiens, UniProt Q02127); test: Dihydro-orotate dehydrogenase inhibition assay (U937 membrane preparations, DCIP reduction); type: biochemical; conditions: U937 membrane preparation; for inhibition at 0.3 µM: compound tested at 0.3 uM (footnote *)
T1 construct: endogenous in cells; host or cells: U937 cells (membrane fraction, solubilised with 1% octyl glucoside)
Procedure: Dihydro-Orotate Dehydrogenase Inhibition Assay
Dihydro-orotate dehydrogenase (DHODH) catalyzes the […] of dihydro-orotate to orotate during de novo biosynthesis of pyrimidines Inhibition of DHODH activity in U937 membrane preparations was measured by the dihydro-orotate driven reduction of 2,6 dichloroindophenol (DCIP).
U937 cells were homogenized in 20 mM Tris/HCl (pH 7.2) containing 1 mM EDTA. […] Following washes, the pellet was dissolved in 20 mM Tris/HCl containing 150 mM NaCl, 1 mM EDTA, and 1% octyl glucoside on ice for 1 h. Particulate matter was removed by centrifugation at 100000×g for 1 h at 4° C. […] The mixture was incubated at 37° C. for 4 h before measuring the change in absorbance on a plate reader (BMG Labtech., Germany) at 600 nm. Data were analyzed using GraphPad Prism. IC50 for each compound was determined based on the percent inhibition of dihydro-orotate […].

IL-17 = test: Inhibition of IL-17 release from mouse splenocytes (PMA + ionomycin, ELISA); type: cell-based, Balb/c mice; conditions: Splenocyte, 10 μM, 3 h
Procedure: 2. Inhibition of IL-17 Release from Mouse Splenocytes:
Splenocytes isolated from Balb/c mice were re-suspended in RPMI medium at a concentration of 1×10^6 cells/ml and seeded in a 6 well plate. Cells were incubated with desired concentrations of the inhibitor for 15 min prior to induction with 10 ng/ml PMA+1 μM ionomycin. After a 3 h incubation, supernatant was collected and analyzed for IL-17 concentration using an ELISA kit. Data were analyzed using GraphPad Prism. IC50 values for each compound were determined based on the percent inhibition due to the test compound compared to the control.

T1 sequence (Q02127 whole entry): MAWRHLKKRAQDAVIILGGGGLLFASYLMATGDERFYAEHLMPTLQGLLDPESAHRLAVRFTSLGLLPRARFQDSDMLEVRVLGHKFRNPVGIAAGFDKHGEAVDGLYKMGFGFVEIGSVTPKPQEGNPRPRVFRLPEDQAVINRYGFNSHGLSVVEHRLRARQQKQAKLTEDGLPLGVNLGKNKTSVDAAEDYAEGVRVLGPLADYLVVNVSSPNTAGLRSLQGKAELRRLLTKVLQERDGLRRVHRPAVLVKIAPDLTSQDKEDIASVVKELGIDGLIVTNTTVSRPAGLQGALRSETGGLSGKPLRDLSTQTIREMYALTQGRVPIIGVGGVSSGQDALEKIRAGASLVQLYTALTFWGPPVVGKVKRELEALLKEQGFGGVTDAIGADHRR

Row | melting point [°C] | inhibition at 1 µM (h-DHODH; 1 uM) [%] | inhibition at 0.3 µM (h-DHODH) [%] | IC50 (h-DHODH) [nM] | h-DHODH % inhibition 1 uM (h-DHODH; 1 uM) [%] | SMILES | inhibition at 10 µM (IL-17) [%]
1 | 150.2 to 154.3 | 1.49 | – | – | – | O=C(O)c1ccccc1C(=O)Nc1ccc(-c2cccc(OC3CC3)c2)cc1 [Example 95, 2-(3′-cyclopropoxybiphenyl-4-ylcarbamoyl)benzoic acid] | –
2 | 142.2 to 148.1 | 47.2 | – | – | – | O=C(O)c1ccccc1C(=O)Nc1ccc(-c2ccccc2F)cc1OC(F)(F)F [Example 23, 2-[2′-Fluoro-3-(trifluoromethoxy)biphenyl-4-ylcarbamoyl]benzoic acid] | 15
3 | 135 to 140 | 75.5 | – | 129 | – | CCOc1cccc(-c2cc(F)c(NC(=O)c3ccccc3C(=O)O)c(Cl)c2)c1 [Example 15, 2-(3-Chloro-3′-ethoxy-5-fluorobiphenyl-4-ylcarbamoyl)benzoic acid] | 57.5
4 | 74 to 76 | – | 57.9 | – | – | CCSc1cccc(-c2ccc(NC(=O)c3ccccc3C(=O)O)cc2F)c1 [Example 82, 2-[3′-(ethylthio)-2-fluorobiphenyl-4-ylcarbamoyl]benzoic acid] | 17.6
5 | 97 to 102 | 12.2 | – | – | – | COc1cccc(-c2cc(F)c(NC(=O)c3ccccc3S(=O)(=O)O)c(F)c2)c1 [Example 2, 2-(3,5-Difluoro-3′-methoxybiphenyl-4-ylcarbamoyl)benzenesulfonic acid] | 29.2
6 | 194 to 199 | 14.3 | – | – | – | COc1cccc(-c2ccc(NC(=O)c3ccccc3C(=O)O)cn2)c1 [Example 3, 2-(6-(3-Methoxyphenyl)pyridin-3-ylcarbamoyl)benzoic acid] | 17.1
7 | 134.5 to 137.5 | 13.9 | – | – | – | O=C(O)c1ccccc1C(=O)Nc1ccc(-c2cccc(OC3CC3)c2)cc1F [Example 94, 2-(3′-cyclopropoxy-3-fluorobiphenyl-4-ylcarbamoyl)benzoic acid] | –
8 | 219 to 221 | – | 50.2 | – | – | CCOc1cccc(-c2cc(F)c(NC(=O)c3ccncc3C(=O)O)c(F)c2)c1 [Example 77, 4-(3′-ethoxy-3,5-difluorobiphenyl-4-ylcarbamoyl)nicotinic acid] | 9.25
9 | 158 to 160 | – | – | – | 10.46 | O=C(O)c1ccccc1C(=O)Nc1c(F)cc(-c2cccc(OC(F)(F)F)c2)cc1F [Example 93, 2-[3,5-difluoro-3′-(trifluoromethoxy)biphenyl-4-ylcarbamoyl]benzoic acid] | –
10 | 182 to 185 | – | – | – | – | O=C(O)c1ccccc1C(=O)Nc1c(Cl)cc(-c2ccccc2Cl)cc1Cl [Example 33, 2-(2′,3,5-Trichlorobiphenyl-4-ylcarbamoyl)benzoic acid] | 14
11 | 185 to 187 | – | – | – | – | COc1ccc(Cl)c(-c2ccc(NC(=O)c3ccccc3C(=O)O)cc2F)c1 [Example 79, 2-(2′-chloro-2-fluoro-5′-methoxybiphenyl-4-ylcarbamoyl)benzoic acid] | 24.6
12 | 162 to 167 | – | – | – | – | CCSc1cccc(-c2c(F)cc(NC(=O)c3ccccc3C(=O)O)cc2F)c1 [Example 89, 2-[3′-(ethylthio)-2,6-difluorobiphenyl-4-ylcarbamoyl]benzoic acid] | 25.5
13 | – | 41.8 | – | – | – | COc1cc(-c2cc(F)c(NC(=O)c3ccccc3C(=O)O)c(Cl)c2)ccc1Cl [Example 60, 2-(3,4′-Dichloro-5-fluoro-3′-methoxybiphenyl-4-ylcarbamoyl)benzoic acid] | 20.3
14 | – | 73.7 | – | – | – | COc1ccc(F)c(-c2cc(F)c(NC(=O)c3ccccc3C(=O)O)c(Cl)c2)c1 [Example 61, 2-(3-chloro-2′,5-difluoro-5′-methoxybiphenyl-4-ylcarbamoyl)benzoic acid] | 4.23
15 | – | 58.2 | – | 181 | – | O=C(O)c1ccccc1C(=O)Nc1c(F)cc(-c2cccc(OC(F)F)c2)cc1F [Example 43, 2-[3′-(Difluoromethoxy)-3,5-difluorobiphenyl-4-ylcarbamoyl]benzoic acid] | 6.82
16 | – | 34.5 | – | – | – | COc1cc(-c2cc(F)c(NC(=O)c3ccccc3C(=O)O)c(F)c2)ccc1Cl [Example 59, 2-(4′-Chloro-3,5-difluoro-3′-methoxybiphenyl-4-ylcarbamoyl)benzoic acid] | 7.36
17 | – | 71.1 | – | 90.6 | – | O=C(O)c1ccccc1C(=O)Nc1c(F)cc(-c2cccc(OC(F)F)c2)cc1Cl [Example 44, 2-[3-Chloro-3′-(difluoromethoxy)-5-fluorobiphenyl-4-ylcarbamoyl]benzoic acid] | 35

The remaining lines, values behind:

Row | SMILES | melting point [°C] | inhibition at 1 µM (h-DHODH; 1 uM) [%] | inhibition at 0.3 µM (h-DHODH) [%] | IC50 (h-DHODH) [nM] | h-DHODH % inhibition 1 uM (h-DHODH; 1 uM) [%] | inhibition at 10 µM (IL-17) [%]
18 | CCOc1cccc(-c2cc(F)c(NC(=O)c3cc(Cl)c(Cl)cc3C(=O)O)c(F)c2)c1 [Example 17, 4,5-Dichloro-2-(3′-ethoxy-3,5-difluorobiphenyl-4-ylcarbamoyl)benzoic acid] | 190.1 to 192.4 | 50.3 | – | – | – | 11.1
19 | CCOc1cccc(-c2cc(F)c(NC(=O)c3cc(Cl)c(Cl)cc3C(=O)O)c(Cl)c2)c1 [Example 14, 4,5-Dichloro-2-(3-chloro-3′-ethoxy-5-fluorobiphenyl-4-ylcarbamoyl)benzoic acid] | 260 to 265 | 52.2 | – | – | – | 13.5
20 | CCOc1cccc(-c2cc(F)c(NC(=O)c3nccnc3C(=O)O)c(Cl)c2)c1 [Example 11, 3-(3-Chloro-3′-ethoxy-5-fluorobiphenyl-4-ylcarbamoyl)pyrazine-2-carboxylic acid] | 148 to 153 | – | – | – | – | 2.62
21 | CCOc1cccc(-c2cc(F)c(NC(=O)c3ncccc3C(=O)O)c(F)c2)c1 [Example 76, 2-(3′-ethoxy-3,5-difluorobiphenyl-4-ylcarbamoyl)nicotinic acid] | 207 to 210 | – | 44 | – | – | 7.88
22 | COc1cccc(-c2cc(F)c(NC(=O)c3cc(Cl)c(Cl)cc3C(=O)O)c(F)c2)c1 [Example 16, 4,5-Dichloro-2-(3,5-difluoro-3′-methoxybiphenyl-4-ylcarbamoyl)benzoic acid] | 158.6 to 162.2 | 28 | – | – | – | 12.3
23 | CCCCOc1cccc(-c2ccc(NC(=O)c3ccccc3C(=O)O)cc2F)c1 [Example 97, 2-(3′-butoxy-2-fluorobiphenyl-4-ylcarbamoyl)benzoic acid] | 164 to 167 | – | – | – | – | –
24 | CCCCOc1cccc(-c2c(F)c(F)c(NC(=O)c3ccccc3C(=O)O)c(F)c2F)c1 [Example 91, 2-(3′-butoxy-2,3,5,6-tetrafluorobiphenyl-4-ylcarbamoyl)benzoic acid] | 215.5 to 218.5 | 42.4 | – | – | – | –
25 | CCCCOc1cccc(-c2ccc(NC(=O)c3ccccc3C(=O)O)c(F)c2)c1 [Example 92, 2-(3′-butoxy-3-fluorobiphenyl-4-ylcarbamoyl)benzoic acid] | 102 to 105 | 9.65 | – | – | – | –
26 | CCc1c[nH]c2ccc(-c3cc(F)c(NC(=O)c4ccccc4C(=O)O)c(Cl)c3)cc12 [Example 100, 2-[2-Chloro-4-(3-ethyl-1H-indol-5-yl)-6-fluorophenylcarbamoyl]benzoic acid] | 98 to 102 | 58.7 | – | – | – | –
27 | CCCCOc1cccc(-c2c(F)cc(NC(=O)c3ccccc3C(=O)O)cc2F)c1 [Example 98, 2-(3′-Butoxy-2,6-difluorobiphenyl-4-ylcarbamoyl)benzoic acid] | 181.1 to 184.2 | 31 | – | – | – | –
28 | CCCc1c[nH]c2ccc(-c3cc(F)c(NC(=O)c4ccccc4C(=O)O)c(F)c3)cc12 [Example 99, 2-[2,6-Difluoro-4-(3-propyl-1H-indol-5-yl)phenylcarbamoyl]benzoic acid] | 76 to 80 | 42.6 | – | – | – | –
29 | O=C(O)c1ccccc1C(=O)Nc1c(F)cc(-c2ccc3c(c2)CCO3)cc1F [Example 52, 2-[4-(2,3-Dihydrobenzofuran-5-yl)-2,6-difluorophenylcarbamoyl]benzoic acid] | – | 12.8 | – | – | – | 13.8
30 | CCOc1cccc(-c2cc(F)c(NC(=O)c3cccc(F)c3C(=O)O)c(Cl)c2)c1 [Example 38, 2-(3-Chloro-3′-ethoxy-5-fluorobiphenyl-4-ylcarbamoyl)-6-fluorobenzoic acid] | – | 27.8 | – | – | – | 9.35
31 | O=C(O)c1ccccc1C(=O)Nc1c(F)cc(-c2ccc3c(c2)OCO3)cc1Cl [Example 48, 2-[4-(Benzo[d][1,3]dioxol-5-yl)-2-chloro-6-fluorophenylcarbamoyl]benzoic acid] | – | 47.1 | – | – | – | 22
32 | CCCCOc1cccc(-c2ccc(NC(=O)c3ccccc3C(=O)O)cc2)c1 [Example 96, 2-(3′-butoxybiphenyl-4-ylcarbamoyl)benzoic acid] | 155 to 157 | – | – | – | – | –
